The values that follow come from ChEMBL document CHEMBL1156863, “Synthesis of 1-(D-glucopyranosyl)-1,2,3-triazoles and their evaluation as glycogen phosphorylase inhibitors” (Bioorg Med Chem, 2010).

The target of one experiment is T1, Glycogen phosphorylase, muscle form (Oryctolagus cuniculus, UniProt P00489).
T1 sequence (P00489 whole entry): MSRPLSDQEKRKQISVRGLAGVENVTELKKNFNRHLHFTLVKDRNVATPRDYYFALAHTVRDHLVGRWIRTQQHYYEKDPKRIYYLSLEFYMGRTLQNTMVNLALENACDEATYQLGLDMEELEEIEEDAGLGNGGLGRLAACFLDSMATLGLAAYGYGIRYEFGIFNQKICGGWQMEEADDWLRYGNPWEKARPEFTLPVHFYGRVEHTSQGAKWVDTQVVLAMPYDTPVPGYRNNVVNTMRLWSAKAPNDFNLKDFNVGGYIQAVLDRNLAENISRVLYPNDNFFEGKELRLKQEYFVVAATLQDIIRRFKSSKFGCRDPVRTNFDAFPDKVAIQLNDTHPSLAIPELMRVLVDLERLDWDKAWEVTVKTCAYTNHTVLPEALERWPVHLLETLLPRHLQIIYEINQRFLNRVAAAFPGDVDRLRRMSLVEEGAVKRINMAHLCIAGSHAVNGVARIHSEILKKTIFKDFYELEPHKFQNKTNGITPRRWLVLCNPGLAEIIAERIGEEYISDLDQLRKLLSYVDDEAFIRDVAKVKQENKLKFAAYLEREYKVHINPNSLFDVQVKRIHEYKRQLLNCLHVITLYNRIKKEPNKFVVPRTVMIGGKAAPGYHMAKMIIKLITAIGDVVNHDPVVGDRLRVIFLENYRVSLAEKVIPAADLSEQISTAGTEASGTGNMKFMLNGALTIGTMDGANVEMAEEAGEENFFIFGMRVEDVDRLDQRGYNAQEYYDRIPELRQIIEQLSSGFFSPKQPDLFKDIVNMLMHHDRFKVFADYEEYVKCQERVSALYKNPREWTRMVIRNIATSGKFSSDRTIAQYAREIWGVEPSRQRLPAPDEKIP
Briefly: Inhibition of rabbit skeletal muscle glycogen phosphorylase b by Lineweaver-Burke plot analysis.
Regarding `NC(=O)[C@@]1(n2cc(-c3ccc4ccccc4c3)nn2)O[C@H](CO)[C@@H](O)[C@H](O)[C@H]1O`, the IC50 – broadly, the concentration that inhibits the measured activity by half – was found to be 780 µM. `COC(=O)c1cn([C@@H]2O[C@H](CO)[C@@H](O)[C@H](O)[C@H]2O)nn1`: the half-inhibitory concentration (IC50) was determined as 500 µM. Against the preceding molecule, the IC50 is about 1.6-fold lower. `O=C(O)c1cn([C@H]2O[C@H](CO)[C@@H](O)[C@H](O)[C@H]2O)nn1`: the IC50 came to 400 µM. On the same count and under the same terms, the figure for `OC[C@H]1O[C@@H](n2cc(Cc3ccccc3)nn2)[C@H](O)[C@@H](O)[C@@H]1O` is 600 µM; for `OC[C@H]1O[C@@H](n2cc(-c3cccc4ccccc34)nn2)[C@H](O)[C@@H](O)[C@@H]1O` it is 625 µM; for `NOC(=O)c1cn([C@@H]2O[C@H](CO)[C@@H](O)[C@H](O)[C@H]2O)nn1` it is 350 µM.

Regarding `OCc1cn([C@H]2O[C@H](CO)[C@@H](O)[C@H](O)[C@H]2O)nn1`, the concentration for half-maximal inhibition (IC50) was 670 µM.

The target in a further experiment is T1, Glycogen phosphorylase, muscle form.
As to `CC(=O)N[C@]1(C(N)=O)O[C@H](CO)[C@@H](O)[C@H](O)[C@H]1O`, the Ki (as a rule, the equilibrium dissociation constant of an inhibitor or competing ligand from its target) amounted to 310 µM.

The molecule `COC(=O)N[C@]1(C(N)=O)O[C@H](CO)[C@@H](O)[C@H](O)[C@H]1O` came in with a Ki of 16 µM. In the case of `O=C(NC1O[C@H](CO)[C@@H](O)[C@H](O)[C@H]1O)c1ccccc1` (single isomer, unassigned), the affinity corresponds to a Ki of 144 µM. Consider `NC(=O)[C@H]1O[C@H](CO)[C@@H](O)[C@H](O)[C@H]1O`, for which the inhibition constant (Ki) amounted to 370 µM. Same read-out and setting: the figure for `COCC(=O)N[C@@H]1O[C@H](CO)[C@@H](O)[C@H](O)[C@H]1O` is 210 µM; for `O=C(Cc1ccccc1)N[C@@H]1O[C@H](CO)[C@@H](O)[C@H](O)[C@H]1O` it is 1100 µM.

The target is the same in another experiment. As to the kind of experiment: Inhibition of rabbit skeletal muscle glycogen phosphorylase b by Dixon plot.
`OC[C@H]1O[C@@H](n2cc(-c3ccccc3)nn2)[C@H](O)[C@@H](O)[C@@H]1O` returned a Ki of 162 µM. Consider `COC(=O)N[C@]1(C(N)=O)O[C@H](CO)[C@@H](O)[C@H](O)[C@H]1O`, for which the Ki was 16 µM. Take `OCc1cn([C@@H]2O[C@H](CO)[C@@H](O)[C@H](O)[C@H]2O)nn1`: the inhibition constant (Ki) was 26 µM. On to `OC[C@H]1O[C@@H](n2cc(-c3ccc4ccccc4c3)nn2)[C@H](O)[C@@H](O)[C@@H]1O`, for which the affinity corresponds to a Ki of 36 µM. `O=C(CO)N[C@@H]1O[C@H](CO)[C@@H](O)[C@H](O)[C@H]1O` returned a Ki of 20 µM.
